From patent publication US9896435B2, “N-pyrrolidinyl,N′-pyrazolyl-urea, thiourea, guanidine and cyanoguanidine compounds as TrkA kinase inhibitors” (Array BioPharma Inc., priority 2012, dated 2018)

How the values were obtained:
Experiment in all cases: KinaseProfiler off-target kinase profiling
Type in all cases: biochemical
Details in all cases: 10 μM, ATP near Km
[1] = target: Hck (Homo sapiens (Human), UniProt P08631)
Protocol: (§1) Two representative compounds (Example 2, 14) of the invention were tested for off-target kinase activity at a concentration of 10 μM by Millipore, Inc. in their KinaseProfiler™ service against all the kinases available in their full kinase panel. These compounds were run in duplicate at a concentration of ATP near the Km for each individual kinase according to Millipore's specifications. The results are shown in Table B. Data are reported as percent of control (POC) and are the average of the two replicates.

[2] = target: Yes (Homo sapiens (Human), UniProt P07947)
Protocol: as §1

[3] = target: PRK2 (Homo sapiens (Human), UniProt Q16513)
Protocol: as §1

[4] = target: mTOR (Homo sapiens (Human), UniProt P42345)
Protocol: as §1

[5] = target: DYRK2 (Homo sapiens (Human), UniProt Q92630)
Protocol: as §1

[6] = target: NEK6 (Homo sapiens (Human), UniProt Q9HC98)
Protocol: as §1

[7] = target: CK1delta (Homo sapiens (Human), UniProt P48730)
Chain of CK1delta (P48730 whole entry): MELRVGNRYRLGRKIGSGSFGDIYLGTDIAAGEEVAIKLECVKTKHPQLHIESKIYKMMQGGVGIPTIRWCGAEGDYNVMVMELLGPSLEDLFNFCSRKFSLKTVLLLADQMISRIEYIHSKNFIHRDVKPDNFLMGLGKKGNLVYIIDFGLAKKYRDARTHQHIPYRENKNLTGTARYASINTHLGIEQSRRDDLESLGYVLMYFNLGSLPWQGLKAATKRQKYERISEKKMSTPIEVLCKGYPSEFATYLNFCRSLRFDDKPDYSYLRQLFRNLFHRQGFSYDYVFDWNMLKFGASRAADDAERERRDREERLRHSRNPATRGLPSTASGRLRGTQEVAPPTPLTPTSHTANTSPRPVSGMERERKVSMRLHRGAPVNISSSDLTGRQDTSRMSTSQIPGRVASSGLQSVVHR
Protocol: as §1

[8] = target: MST3 (Homo sapiens (Human), UniProt Q9Y6E0)
Protocol: as §1

[9] = target: JNK2alpha2 (Homo sapiens (Human), UniProt P45984)
Protocol: as §1

[10] = target: MEK1 (Homo sapiens (Human), UniProt Q02750)
Protocol: as §1

[11] = target: GSK3alpha (Homo sapiens (Human), UniProt P49840)
Protocol: as §1

[12] = target: MSK1 (Homo sapiens (Human), UniProt O75582)
Protocol: as §1

[13] = target: IGF-1R (Homo sapiens (Human), UniProt P08069)
Protocol: as §1

[14] = target: AKT2 (Homo sapiens (Human), UniProt P31751)
Protocol: as §1

[15] = target: ROCK-I (Homo sapiens (Human), UniProt Q13464)
Protocol: as §1

[16] = target: IR Activated (Homo sapiens (Human), UniProt P06213)
Protocol: as §1

[17] = target: MRCKbeta (Homo sapiens (Human), UniProt Q9Y5S2)
Protocol: as §1

[18] = target: MSK2 (Homo sapiens (Human), UniProt O75676)
Protocol: as §1

[19] = target: Fms (Homo sapiens (Human), UniProt P07333)
Chain of Fms (P07333 20-972): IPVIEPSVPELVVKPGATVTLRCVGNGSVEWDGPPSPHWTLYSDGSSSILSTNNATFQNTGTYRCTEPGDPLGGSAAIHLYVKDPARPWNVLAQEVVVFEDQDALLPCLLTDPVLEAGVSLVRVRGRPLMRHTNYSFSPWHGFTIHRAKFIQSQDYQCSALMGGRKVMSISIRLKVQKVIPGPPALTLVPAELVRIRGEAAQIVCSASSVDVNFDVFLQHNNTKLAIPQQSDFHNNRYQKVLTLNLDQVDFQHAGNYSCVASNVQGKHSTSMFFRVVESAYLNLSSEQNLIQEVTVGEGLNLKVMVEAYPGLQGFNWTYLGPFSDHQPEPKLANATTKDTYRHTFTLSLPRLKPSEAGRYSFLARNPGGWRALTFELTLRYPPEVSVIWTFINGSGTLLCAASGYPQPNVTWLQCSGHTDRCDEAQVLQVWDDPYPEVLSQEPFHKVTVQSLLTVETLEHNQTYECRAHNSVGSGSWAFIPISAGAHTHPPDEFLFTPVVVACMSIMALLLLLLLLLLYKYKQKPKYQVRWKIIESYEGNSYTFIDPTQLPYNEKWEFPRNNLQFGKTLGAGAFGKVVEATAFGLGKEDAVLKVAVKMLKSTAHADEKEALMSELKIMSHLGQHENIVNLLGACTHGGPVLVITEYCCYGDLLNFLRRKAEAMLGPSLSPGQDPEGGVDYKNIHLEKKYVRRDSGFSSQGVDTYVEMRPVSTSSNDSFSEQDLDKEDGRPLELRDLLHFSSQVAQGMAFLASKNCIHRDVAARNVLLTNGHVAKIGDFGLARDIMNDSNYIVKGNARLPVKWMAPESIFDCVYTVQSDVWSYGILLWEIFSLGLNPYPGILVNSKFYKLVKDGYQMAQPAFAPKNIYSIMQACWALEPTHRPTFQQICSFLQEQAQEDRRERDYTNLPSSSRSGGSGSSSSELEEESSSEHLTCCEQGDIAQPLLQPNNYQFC
Protocol: as §1

[20] = target: Flt3 (Homo sapiens (Human), UniProt P36888)
Protocol: as §1

[21] = target: ULK2 (Homo sapiens (Human), UniProt Q8IYT8)
Protocol: as §1

[22] = target: EphB1 (Homo sapiens (Human), UniProt P54762)
Protocol: as §1

[23] = target: PhKgamma2 (Homo sapiens (Human), UniProt P15735)
Protocol: as §1

[24] = target: EphA1 (Homo sapiens (Human), UniProt P21709)
Protocol: as §1

[25] = target: p38gamma (Homo sapiens (Human), UniProt P53778)
Protocol: as §1

[26] = target: Ron (Homo sapiens (Human), UniProt Q04912)
Protocol: as §1

[27] = target: IGF-1R Activated (Homo sapiens (Human), UniProt P08069)
Protocol: as §1

[28] = target: AMPK(A1/B1/G1) (Homo sapiens (Human), UniProt Q13131)
Protocol: as §1

[29] = target: ErbB4 (Homo sapiens (Human), UniProt Q15303)
Protocol: as §1

[30] = target: PAK6 (Homo sapiens (Human), UniProt Q9NQU5)
Chain of PAK6 (Q9NQU5 whole entry): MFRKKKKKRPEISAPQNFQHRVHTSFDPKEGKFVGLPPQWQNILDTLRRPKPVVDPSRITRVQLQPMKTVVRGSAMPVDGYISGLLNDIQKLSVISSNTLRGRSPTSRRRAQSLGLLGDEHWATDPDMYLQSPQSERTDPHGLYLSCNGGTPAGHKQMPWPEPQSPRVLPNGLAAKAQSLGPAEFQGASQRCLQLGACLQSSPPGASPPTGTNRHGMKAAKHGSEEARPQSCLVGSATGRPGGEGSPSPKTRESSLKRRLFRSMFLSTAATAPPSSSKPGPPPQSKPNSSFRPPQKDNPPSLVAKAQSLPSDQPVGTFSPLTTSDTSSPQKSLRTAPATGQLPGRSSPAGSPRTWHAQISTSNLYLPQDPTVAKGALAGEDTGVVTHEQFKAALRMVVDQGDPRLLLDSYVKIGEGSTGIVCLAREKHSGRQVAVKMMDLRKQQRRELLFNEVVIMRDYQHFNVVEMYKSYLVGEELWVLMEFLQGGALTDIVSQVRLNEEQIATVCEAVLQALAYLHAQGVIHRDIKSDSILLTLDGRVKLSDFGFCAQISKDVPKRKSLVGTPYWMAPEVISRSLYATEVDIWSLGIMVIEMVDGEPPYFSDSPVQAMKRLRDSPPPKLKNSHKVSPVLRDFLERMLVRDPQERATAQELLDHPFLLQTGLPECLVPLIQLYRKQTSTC
Protocol: as §1

[31] = target: p38alpha (Homo sapiens (Human), UniProt Q16539)
Protocol: as §1

[32] = target: Ret (Homo sapiens (Human), UniProt P07949)
Protocol: as §1

[33] = target: VRK2 (Homo sapiens (Human), UniProt Q86Y07)
Protocol: as §1

[34] = target: Ros (Homo sapiens (Human), UniProt P08922)
Chain of Ros (P08922 28-2347): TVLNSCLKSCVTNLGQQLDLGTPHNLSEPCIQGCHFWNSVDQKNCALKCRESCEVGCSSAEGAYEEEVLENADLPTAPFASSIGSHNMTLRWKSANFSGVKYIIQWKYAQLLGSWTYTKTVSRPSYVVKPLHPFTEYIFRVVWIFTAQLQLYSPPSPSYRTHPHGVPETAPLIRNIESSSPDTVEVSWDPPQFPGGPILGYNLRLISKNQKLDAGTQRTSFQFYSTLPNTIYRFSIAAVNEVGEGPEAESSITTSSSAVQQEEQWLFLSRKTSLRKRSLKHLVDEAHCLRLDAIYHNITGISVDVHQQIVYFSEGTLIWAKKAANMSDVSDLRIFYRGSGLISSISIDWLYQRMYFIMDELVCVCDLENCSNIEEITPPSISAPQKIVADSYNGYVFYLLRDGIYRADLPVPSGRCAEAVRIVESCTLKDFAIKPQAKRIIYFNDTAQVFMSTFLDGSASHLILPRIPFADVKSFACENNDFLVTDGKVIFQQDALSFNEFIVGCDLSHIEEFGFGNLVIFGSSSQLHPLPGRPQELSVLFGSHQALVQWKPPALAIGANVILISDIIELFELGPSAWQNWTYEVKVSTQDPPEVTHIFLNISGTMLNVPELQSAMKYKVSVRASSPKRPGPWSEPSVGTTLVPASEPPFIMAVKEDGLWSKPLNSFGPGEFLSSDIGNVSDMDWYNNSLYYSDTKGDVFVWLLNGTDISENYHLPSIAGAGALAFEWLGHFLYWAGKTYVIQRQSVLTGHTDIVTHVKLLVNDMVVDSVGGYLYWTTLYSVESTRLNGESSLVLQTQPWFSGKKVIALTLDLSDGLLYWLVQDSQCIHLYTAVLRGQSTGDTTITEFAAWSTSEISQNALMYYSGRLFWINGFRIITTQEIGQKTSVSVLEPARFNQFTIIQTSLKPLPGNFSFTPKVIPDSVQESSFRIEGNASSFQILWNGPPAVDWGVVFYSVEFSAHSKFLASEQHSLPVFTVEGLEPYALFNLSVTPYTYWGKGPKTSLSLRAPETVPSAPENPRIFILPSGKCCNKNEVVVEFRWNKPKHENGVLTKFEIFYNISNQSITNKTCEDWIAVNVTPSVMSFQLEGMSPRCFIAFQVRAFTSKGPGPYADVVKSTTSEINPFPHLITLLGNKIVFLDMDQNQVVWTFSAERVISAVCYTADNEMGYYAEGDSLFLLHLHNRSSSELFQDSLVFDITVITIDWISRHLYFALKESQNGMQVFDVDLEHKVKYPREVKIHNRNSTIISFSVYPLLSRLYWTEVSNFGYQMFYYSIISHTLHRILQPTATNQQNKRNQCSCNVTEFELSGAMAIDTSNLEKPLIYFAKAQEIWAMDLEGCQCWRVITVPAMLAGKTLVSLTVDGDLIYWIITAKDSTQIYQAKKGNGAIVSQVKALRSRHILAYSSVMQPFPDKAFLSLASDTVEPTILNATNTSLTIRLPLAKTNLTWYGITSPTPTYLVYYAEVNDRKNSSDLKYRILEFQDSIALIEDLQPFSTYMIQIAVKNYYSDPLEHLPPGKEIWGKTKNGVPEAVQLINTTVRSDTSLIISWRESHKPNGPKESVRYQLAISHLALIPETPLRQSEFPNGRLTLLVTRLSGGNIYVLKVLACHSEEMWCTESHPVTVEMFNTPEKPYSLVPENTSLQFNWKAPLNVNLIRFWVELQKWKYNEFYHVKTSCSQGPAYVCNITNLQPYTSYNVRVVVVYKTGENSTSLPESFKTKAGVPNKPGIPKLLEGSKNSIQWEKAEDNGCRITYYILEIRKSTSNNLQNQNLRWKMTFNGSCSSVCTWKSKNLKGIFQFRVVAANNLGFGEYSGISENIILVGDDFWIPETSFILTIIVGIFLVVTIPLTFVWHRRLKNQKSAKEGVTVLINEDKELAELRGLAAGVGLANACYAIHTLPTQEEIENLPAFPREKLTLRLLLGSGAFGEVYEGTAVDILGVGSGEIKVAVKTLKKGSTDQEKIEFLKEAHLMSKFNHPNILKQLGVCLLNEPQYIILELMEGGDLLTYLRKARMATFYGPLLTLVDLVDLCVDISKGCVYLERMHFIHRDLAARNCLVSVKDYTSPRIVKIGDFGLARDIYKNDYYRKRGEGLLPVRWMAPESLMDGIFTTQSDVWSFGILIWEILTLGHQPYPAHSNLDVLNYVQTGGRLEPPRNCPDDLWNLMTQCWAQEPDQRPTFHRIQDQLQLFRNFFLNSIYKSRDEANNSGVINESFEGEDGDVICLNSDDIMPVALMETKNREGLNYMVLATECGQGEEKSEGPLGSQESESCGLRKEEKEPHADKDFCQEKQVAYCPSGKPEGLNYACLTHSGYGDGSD
Protocol: as §1

[35] = target: JNK3 (Homo sapiens (Human), UniProt P53779)
Protocol: as §1

[36] = target: GRK6 (Homo sapiens (Human), UniProt P43250)
Chain of GRK6 (P43250 whole entry): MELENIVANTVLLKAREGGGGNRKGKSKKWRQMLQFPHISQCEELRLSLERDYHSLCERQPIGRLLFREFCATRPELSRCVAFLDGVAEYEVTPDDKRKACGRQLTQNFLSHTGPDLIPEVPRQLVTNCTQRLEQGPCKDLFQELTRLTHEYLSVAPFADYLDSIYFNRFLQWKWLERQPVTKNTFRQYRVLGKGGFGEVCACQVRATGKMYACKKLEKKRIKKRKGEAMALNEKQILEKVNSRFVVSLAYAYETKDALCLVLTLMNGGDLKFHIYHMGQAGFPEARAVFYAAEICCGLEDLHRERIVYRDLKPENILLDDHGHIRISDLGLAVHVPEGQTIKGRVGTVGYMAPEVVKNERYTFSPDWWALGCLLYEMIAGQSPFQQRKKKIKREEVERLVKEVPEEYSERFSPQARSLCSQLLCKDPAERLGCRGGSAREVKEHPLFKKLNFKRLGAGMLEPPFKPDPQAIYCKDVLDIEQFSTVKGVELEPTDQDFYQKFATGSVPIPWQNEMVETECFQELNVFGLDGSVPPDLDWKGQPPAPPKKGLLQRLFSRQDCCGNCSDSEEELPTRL
Protocol: as §1

[37] = target: BrSK2 (Homo sapiens (Human), UniProt Q8IWQ3)
Protocol: as §1

[38] = target: ERK2 (Homo sapiens (Human), UniProt P28482)
Protocol: as §1

[39] = target: Plk1 (Homo sapiens (Human), UniProt P53350)
Protocol: as §1

[40] = target: SRC (Homo sapiens (Human), UniProt P12931)
Protocol: as §1

Row | Avg POC [1] [POC] | Avg POC [2] [POC] | Avg POC [3] [POC] | Avg POC [4] [POC] | Avg POC [5] [POC] | Avg POC [6] [POC] | Avg POC [7] [POC] | Avg POC [8] [POC] | Avg POC [9] [POC] | Avg POC [10] [POC] | Avg POC [11] [POC] | Avg POC [12] [POC] | Avg POC [13] [POC] | Avg POC [14] [POC] | Avg POC [15] [POC] | Avg POC [16] [POC] | Avg POC [17] [POC] | Avg POC [18] [POC] | Avg POC [19] [POC] | Avg POC [20] [POC] | Structure (SMILES) | other results
1 | 116.5 | 104 | 105 | 108.5 | 90.5 | 105.5 | 108 | 101 | 100 | 100.5 | 94 | 102.5 | 63 | 113 | 98 | 106.5 | 105 | 120 | 101.5 | 119.5 | COCCN1C[C@@H](NC(=O)Nc2c(C)c(-c3ccnc(C)c3)nn2-c2ccccc2)[C@H](c2ccc(F)c(F)c2)C1 [Example 2, 1-((3S,4R)-4-(3,4-difluorophenyl)-1-(2-methoxyethyl)pyrrolidin-3-yl)-3-(4-methyl-3-(2-methylpyridin-4-yl)-1-phenyl-1H-pyrazol-5-yl)urea] | Avg POC [21]: 96.5 POC; Avg POC [22]: 93.5 POC; Avg POC [23]: 90 POC; Avg POC [24]: 97 POC; Avg POC [25]: 92 POC; Avg POC [26]: 122.5 POC; Avg POC [27]: 102 POC; Avg POC [28]: 118 POC; Avg POC [29]: 98 POC; Avg POC [30]: 106 POC; Avg POC [31]: 112 POC; Avg POC [32]: 106.5 POC; Avg POC [33]: 101.5 POC; Avg POC [34]: 105 POC; Avg POC [35]: 111.5 POC; Avg POC [36]: 96.5 POC; Avg POC [37]: 93 POC; Avg POC [38]: 106.5 POC; Avg POC [39]: 100 POC; Avg POC [40]: 105 POC
2 | 108.5 | 55.5 | 106.5 | 102.5 | 85 | 102 | 108.5 | 105.5 | 97 | 91 | 101.5 | 106 | 79 | 119.5 | 109.5 | 100.5 | 98.5 | 116 | 76 | 90 | COCCN1C[C@@H](NC(=O)Nc2c(C)c(-c3cnc(C)nc3)nn2-c2ccccc2)[C@H](c2cc(F)cc(F)c2)C1 [Example 14, 1-((3S,4R)-4-(3,5-difluorophenyl)-1-(2-methoxyethyl)pyrrolidin-3-yl)-3-(4-methyl-3-(2-methylpyrimidin-5-yl)-1-phenyl-1H-pyrazol-5-yl)urea] | Avg POC [21]: 106.5 POC; Avg POC [22]: 97.5 POC; Avg POC [23]: 88 POC; Avg POC [24]: 99 POC; Avg POC [25]: 92.5 POC; Avg POC [26]: 104 POC; Avg POC [27]: 106 POC; Avg POC [28]: 106.5 POC; Avg POC [29]: 101.5 POC; Avg POC [30]: 102 POC; Avg POC [31]: 101 POC; Avg POC [32]: 84 POC; Avg POC [33]: 109.5 POC; Avg POC [34]: 91 POC; Avg POC [35]: 121 POC; Avg POC [36]: 97 POC; Avg POC [37]: 99 POC; Avg POC [38]: 92.5 POC; Avg POC [39]: 113 POC; Avg POC [40]: 103.5 POC
